“Also recorded” adds a separate entry of the source.
Columns and labels:
[1] = test system: Ndufs4(KO) mice; test: Body weight, growth and cachexia onset; assay type: in vivo, mouse
Description: (§1) Ndufs4(+/−) mice were bred to produce Ndufs4(KO) (Ndufs4(−/−)) offspring. Mice were weaned at 20-21 days of age. Ndufs4(KO) animals were housed with a minimum of one control littermate for warmth and stimulation. Mice were weighed, and health assessed, a minimum of 3 times per week, every other day (daily for IP injected mice, see herein). Where longitudinal blood point-of-care data was collected, this was performed during these health checks. Wetted chow in a dish on the bottom of each cage, and in-cage water bottles, were provided to all cages housing Ndufs4(KO) mice following the onset of disease so that the ability to find or reach food or water was not a limiting factor for survival.
Cachexia in FIG. 4H and FIG. 6E is the day of life when weight peaks prior to the progressive weight loss which occurs in untreated Ndufs4(KO) animals.

[2] = test system: Ndufs4(KO) mice; test: Longitudinal assessment of neurological disease symptoms (clasping, ataxia, circling); assay type: in vivo, mouse; settings: Ndufs4(KO) mice vs untreated
Description: Longitudinal assessments of neurological disease symptoms. Clasping, ataxia, and circling were assessed by visual scoring, as previously described. As disease progresses in the Ndufs4(KO) mice animals display intermittent/transient improvement of symptoms. […] For observational assessments, lab-wide quality control discussions occurred frequently to ensure consistency between technicians/researchers. Technicians contributed equally to each treatment group to minimize any potential bias between individuals.

[3] = test system: Ndufs4(KO) mouse model of LS; test: Survival studies and overall disease course in Ndufs4(KO) mice; assay type: in vivo; settings: for impact on disease (overall) / disease or survival: Ndufs4(KO) mice; for survival: Ndufs4(KO) mice vs untreated
Description: as §1
Doses of each drug was based on published data for use in animals. […] Blood and tissue concentrations reached biologically relevant levels for each of the tested inhibitors.
Pharmacologic interventions and chow formulation. Standard mouse chow was ground to a power and mixed with drugs at the doses desired (see FIGS. 4A-4L). 300 mL of 1% agar melted in sterile water was added per kilogram of powdered chow and the mixture was pelleted and baked at 37° C. for 3-5 hours to dry. Pellets were then stored at 4° C. for short term (up to 90 days) or −20° C. for long-term (up to 6 months) storage. It was previously shown that this processing had no impact on animal health or survival (Johnson et al. Front Genet. 2015; 6:247). […]
To determine whether the benefits of mTOR inhibition in Ndufs4(KO) model result from disruption of PI3K mediated signaling, animals were treated from weaning (post-natal day 21, P21) with potent, orally available, isoform specific inhibitors of the catalytic subunits of PI3K: BYL719, GSK2636771, CAL-101, and IPI-549, inhibitors of p110α, p110β, p110δ, and p110γ, respectively.

[4] = test system: Ndufs4(KO) mice; test: Rotarod assay; assay type: in vivo, mouse; settings: latency to fall up to 10 min, 6 rpm
Description: Rotarod and rotarod seizures. Rotarod assays were performed using a Med Associates Inc. (Fairfax, VT) ENV-571M single lane rotarod with a black mat installed in the floor of the lane to reduce visibility of the bottom. Assays were performed by placing animals onto an already rotating rod and timing latency to fall, with a steady rotation speed set to 6 rpm (controlled by attached laptop and Med Associates software). The maximum time of each trial was 10 min, with the trial ending at that time if mice were still on the rotarod. For each assay, three trials were performed, with a minimum of 5 min between each assay. The best of the three trials was reported for the rotarod data. As detailed in the text and figure legends, rotarod was performed each 10 days of age from P30; mice in a given age group were the reported age +/−1 day.

[5] = test system: Ndufs4(KO) mice; test: Point-of-care blood glucose by age; assay type: in vivo, mouse
Excerpt: (§2) Point-of-care glucose and lactate testing. Blood glucose and lactate measurements were collected using point-of-care meters (Prodigy Autocode® glucose meter, product #51850-3466188, Prodigy® Diabetes Care, LLC, Charlotte, NC; lactate assay meter, product #40828, Nova Biomedical, Waltham, MA) and the tail-prick method, as previously described (Stokes et al. Elife 2021; 10:e65400).

[6] = test system: control and Ndufs4(KO) mice; test: Glucose tolerance test (GTT) and glucose induced lactate test; assay type: in vivo, mouse; settings: 2 g/kg glucose IP; pexidartinib 300 mg/kg/d in chow, IPI-549 100 mg/kg/d in chow, rapamycin (ABI-009) 8 mg/kg/d IP
Excerpt: as §2
Glucose tolerance test (GTT) and glucose induced lactate test. Prior to performing the GTT, mice were fasted for 4 hours, from 10 AM-2 PM. The fasting duration was limited to 4 hours given the sensitivity of untreated Ndufs4(KO) animals to hypoglycemia and related sequelae (dysregulation of body temperature, hypoglycemia induced seizure, etc.). For the ABI-009 cohort, mice received their daily ABI-009 treatment at the start of this fasting period. At the end of the 4 hour fast, baseline blood glucose and lactate values were collecting using point-of-care meters and the tail-prick method. Mice were then injected by IP with 2 g/kg dextrose (10 microliters/gram body weight of 200 mg/mL glucose in 1×PBS, 0.2 micron sterile filtered) using an insulin syringe (31-gauge, 6 mm length, 3/10 cc, BD Veo Ultra-Fine needle). Glucose and lactate levels were measured using a minimally invasive tail-prick method at designated timepoints post-injection.

[7] = test system: Ndufs4(KO) mice; settings: rapamycin at doses sufficient to attenuate disease; Johnson et al.; cited from earlier work

| Structure (SMILES) | growth and body size ([1]; compared with mTOR inhibition) | onset of symptoms: forelimb clasping, ataxia, and circling [2] | impact on disease (overall) / disease or survival [3] | survival [3] | cachexia [1] | median survival ([3]; Ndufs4(KO) mice treated from weaning (P21) via chow, untreated 60) | performance on rotarod assay [4] | hypoglycemia (blood glucose) [5] | blood lactate spike in response to a glucose bolus [6] | developmental weight gain and maximum body size [7] |
| --- | --- | --- | --- | --- | --- | --- | --- | --- | --- | --- |
| Cc1nc(NC(=O)N2CCC[C@H]2C(N)=O)sc1-c1ccnc(C(C)(C)C(F)(F)F)c1 [BYL719, (2S)-1-N-[4-methyl-5-[2-(1,1,1-trifluoro-2-methylpropan-2-yl)pyridin-4-yl]-1,3-thiazol-2-yl]pyrrolidine-1,2-dicarboxamide] | extremely small body size; also recorded: severely impaired growth and size | statistically significant delay in symptom onset | only modestly impacting disease | extension of survival | – | – | – | – | – | – |
| C[C@H](NC(=O)c1c(N)nn2cccnc12)c1cc2cccc(C#Cc3cnn(C)c3)c2c(=O)n1-c1ccccc1 [IPI-549, 2-amino-N-[(1S)-1-[8-[2-(1-methylpyrazol-4-yl)ethynyl]-1-oxo-2-phenylisoquinolin-3-yl]ethyl]pyrazolo[1,5-a]pyrimidine-3-carboxamide] | – | significantly delayed the onset | attenuated disease | markedly extended survival | prevented | 110 days | improved | prevented | similarly prevented the lactate sequelae | – |
| CO[C@H]1C[C@@H]2CC[C@@H](C)[C@@](O)(O2)C(=O)C(=O)N2CCCC[C@H]2C(=O)O[C@H]([C@H](C)C[C@@H]2CC[C@@H](O)[C@H](OC)C2)CC(=O)[C@H](C)/C=C(\C)[C@@H](O)[C@@H](OC)C(=O)[C@H](C)C[C@H](C)/C=C/C=C/C=C/1C [rapamycin] | – | – | – | – | – | – | – | – | – | significant reductions |
